# Source: ChEMBL document CHEMBL1147588, “Synthesis and in vitro cytotoxicity of 5-substituted 2-cyanoimino-4-imidazodinone and 2-cyanoimino-4-pyrimidinone derivatives” (Bioorg Med Chem Lett, 2004)
# How the values were obtained:
# [1] = system: MCF7; test: Cytotoxic activity against MCF breast cancer cell line; assay type: functional, cell-based; conditions: Homo sapiens
# [2] = system: DLD-1; test: Cytotoxic activity against DLD1 colon cancer cell line; assay type: functional, cell-based; conditions: Homo sapiens
# [3] = system: HONE1 cell line; test: Cytotoxic activity against HONE1 nasopharyngeal carcinoma cell line; assay type: functional, cell-based; conditions: Homo sapiens
# [4] = system: HA22T cell line; test: Cytotoxic activity against HA22T liver cancer cell line; assay type: functional, cell-based; conditions: Homo sapiens
# [5] = system: WI-38; test: Cytotoxic activity against WI38 normal fibroblast cell line; na=Not active; assay type: functional, cell-based, Homo sapiens
# [6] = system: HepG2; test: Cytotoxic activity against HepG2 liver cancer cell line; assay type: functional, cell-based; conditions: Homo sapiens
# [7] = system: NUGC; test: Cytotoxic activity against NUGC gastric cancer cell line; assay type: functional, cell-based; conditions: Homo sapiens, Stomach
# [8] = system: HA22T cell line; test: Cytotoxic activity against HA22T liver cancer cell line; na=Not active; assay type: functional, cell-based, Homo sapiens
# [9] = system: MCF7; test: Cytotoxic activity against MCF breast cancer cell line; na=Not active; assay type: functional, cell-based, Homo sapiens
SMILES,IC50 [1] [µM],IC50 [2] [µM],IC50 [3] [µM],IC50 [4] [µM],IC50 [5],IC50 [6] [µM],IC50 [7] [µM],IC50 [8],IC50 [9]
N#C/N=C1\N(CCCCCCCOc2ccc(Cl)cc2)C(=O)C(c2ccccc2)N1c1ccncc1 (configuration not stated),1.17,0.29,0.398,0.831,Not Active,0.38,3.35,–,–
N#C/N=C1\N(CCCCCCOc2ccc(Cl)cc2)C(=O)C(c2ccccc2)N1c1ccncc1 (configuration not stated),1.13,0.037,0.337,0.526,Not Active,0.044,3.34,–,–
CC1C(=O)N(CCCCCCOc2ccc(Cl)cc2)/C(=N\C#N)N1c1ccncc1 (configuration not stated),0.27,0.333,0.303,0.382,Not Active,0.282,0.214,–,–
CCC1C(=O)N(CCCCCCOc2ccc(Cl)cc2)/C(=N\C#N)N1c1ccncc1 (configuration not stated),6.91,3.56,3.87,5.13,Not Active,4.35,0.406,–,–
CC1C(=O)N(CCCCCOc2ccc(Cl)cc2)/C(=N\C#N)N1c1ccncc1 (configuration not stated),9.26,4.11,3.68,–,Not Active,4.09,1.78,Not Active,–
N#C/N=C1\N(CCCCCOc2ccc(Cl)cc2)C(=O)CCN1c1ccncc1,5.46,6.74,3.45,–,Not Active,2.83,3.12,Not Active,–
N#C/N=C1\N(CCCCCOc2ccc(Cl)cc2)C(=O)C(c2ccccc2)N1c1ccncc1 (configuration not stated),1,0.337,0.373,3.59,Not Active,0.415,3.45,–,–
CC1C(=O)N(CCCCCCCOc2ccc(Cl)cc2)/C(=N\C#N)N1c1ccncc1 (configuration not stated),0.46,0.37,0.371,0.688,Not Active,0.359,1.25,–,–
N#C/N=C1\N(CCCCCCCOc2ccc(Cl)cc2)C(=O)CN1c1ccncc1,0.815,3.34,3.24,3.5,Not Active,2.74,0.926,–,–
N#C/N=C1\N(CCCCCCOc2ccc(Cl)cc2)C(=O)CCN1c1ccncc1,0.454,0.565,0.577,3.04,Not Active,0.344,0.288,–,–
N#C/N=C1\N(CCCCCCOc2ccc(Cl)cc2)C(=O)CN1c1ccncc1,0.443,3.44,2.96,3.86,Not Active,0.392,0.386,–,–
N#C/N=C1\N(CCCCCCCOc2ccc(Cl)cc2)C(=O)CCN1c1ccncc1,6.84,3.2,3.44,7.56,Not Active,4,1.1,–,–
N#C/N=C1\N(CCCCCOc2ccc(Cl)cc2)C(=O)CN1c1ccncc1,5.36,3.8,3.4,8.97,Not Active,4.2,2.76,–,–
CCC1C(=O)N(CCCCCCCOc2ccc(Cl)cc2)/C(=N\C#N)N1c1ccncc1 (configuration not stated),4.54,3.53,3.23,6.05,Not Active,3.45,1.28,–,–
CCC1C(=O)N(CCCCCOc2ccc(Cl)cc2)/C(=N\C#N)N1c1ccncc1 (configuration not stated),–,4.08,4.83,–,Not Active,4.32,3.04,Not Active,Not Active
N#CN=C(NCCCCCCOc1ccc(Cl)cc1)Nc1ccncc1 [CHS-828],0.018,2.31,0.015,2.07,Not Active,1.25,0.025,–,–
